From patent publication US6451828B1, “Selective inhibition of glutaminase by bis-thiadiazoles” (priority 2000, dated 2002)

Tests used:
astrocytes = assay: Intracellular amino acids in primary cultures of astrocytes; type: cell-based
Description: (§1) To produce dose response curves for lowering of intracellular Glu and Asp (FIG. 6A-B), the procedure was repeated with 4 days (for cerebellar granule cells) and 12 days of incubation (for astrocytes). […] Results are shown in FIGS. 6A-B. Data are expressed as the ratio of Glu, Asp, or GABA to Ala (neurons and astrocytes) or Ser (astrocytes).

[1] = target: T1, glutaminase activity in rat brain membranes (Rattus norvegicus, UniProt P13264); assay: Inhibition of glutaminase activity in rat brain membranes; type: biochemical; conditions: PO4 conc. = 8 mM; FIG. 2
T1 construct: from tissue; host or cells: rat brain membranes
T1 sequence (P13264 55-674): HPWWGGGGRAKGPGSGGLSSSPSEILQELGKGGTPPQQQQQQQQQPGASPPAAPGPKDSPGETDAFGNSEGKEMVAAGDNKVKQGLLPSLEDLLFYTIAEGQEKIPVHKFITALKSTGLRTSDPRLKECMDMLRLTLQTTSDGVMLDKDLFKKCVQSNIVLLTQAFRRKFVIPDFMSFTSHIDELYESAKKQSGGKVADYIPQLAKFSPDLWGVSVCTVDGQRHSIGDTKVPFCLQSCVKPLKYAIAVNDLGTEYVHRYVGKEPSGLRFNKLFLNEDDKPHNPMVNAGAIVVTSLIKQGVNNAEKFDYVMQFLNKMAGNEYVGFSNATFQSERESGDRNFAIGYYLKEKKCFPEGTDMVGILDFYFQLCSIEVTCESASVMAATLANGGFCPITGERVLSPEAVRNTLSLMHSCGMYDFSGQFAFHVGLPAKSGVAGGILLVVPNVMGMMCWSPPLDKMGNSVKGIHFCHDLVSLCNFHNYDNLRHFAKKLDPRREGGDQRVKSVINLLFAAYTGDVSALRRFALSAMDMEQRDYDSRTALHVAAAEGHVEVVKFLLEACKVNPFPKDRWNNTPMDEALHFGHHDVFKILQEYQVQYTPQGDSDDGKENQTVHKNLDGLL
Description: Aliquots of 10 μL were removed at 0, 85, and 195 min, added to 90 μL 1:3 DMF/H2O, and analyzed for glutamate by HPLC following derivatization with o-phthaldialdehyde and 2-mercaptoethanol (see Lo et al. 1998).

microglia (BV-2) cells = assay: Inhibition of microglial glutamate secretion; type: cell-based; conditions: Mus musculus
Description: As described in Wood, glutamate efflux from microglia is dependent on the presence of added external glutamine. […] Therefore, the concentration of glutamate in the culture medium can be used directly as a measure of glutamate production by these cells.
In assaying the invention compounds, microglia (BV-2) cells were cultured using standard methods, as described in Example 4. On the day of the experiment, cells were incubated in glutamine free medium for 1 to 1.5 hours, then glutamine and test compounds, dissolved in glutamine free medium, were added. Aliquots were removed at 2 h and 4 h for glutamate analysis.
Inhibition of Microglial Glutamate Secretion
BV-2 cells were cultured in 24 well plates using Dulbeccos minimal essential medium containing 10% heat inactivated fetal bovine serum, and grown to 70-80% confluency before use. On the day of the experiment, cells were placed in glutamine free medium for 1 to 1.5 hours. […] This solution was used to replace one half of the 0.5 mL culture medium volume at the end of the glutamine free incubation. Aliquots of 10 μL medium were removed at 2 h and 4 h and placed in 96 well microtiter plates with 90 μL DMF/water (1:9) for glutamate analysis.

[2] = system: intestinal epithelial (CACO2) cells; assay: Intracellular amino acids in intestinal epithelial cells; type: cell-based
Description: When the cells reached about 80% confluency, fresh glutamine was added to 2 mM. […] After 6.5 h of incubation, cultures were washed twice with phosphate buffered saline and extracted with 100 μL 1M perchloric acid. Extracts were neutralized with 30 μL of 5M potassium carbonate, centrifuged, and analyzed by HPLC for nucleotides, as described in Di Pierro et al. 1995, and for amino acids, as described in Lo et al. 1998. Results are shown in FIG. 5A (amino acids) and FIG. 5B (nucleotides).

cerebellar granule cells = assay: Intracellular amino acids in primary cultures of cerebellar granule cells; type: cell-based
Description: as §1, with “After 5 h incubation, the cultures were washed twice with phosphate buffered saline, extracted with perchloric acid and analyzed for amino acids as described for FIG. 5A. To” for “To”

[3] = CACO2, 10 nM to 10 μM, 6.5 h, FIG. 5A

Compound: O=C(Cc1ccccc1)Nc1nnc(CCSCCc2nnc(NC(=O)Cc3ccccc3)s2)s1 [SNX-1770, bis-2′-[5-(phenylacetamido)-1,3,4-thiadiazol-2-yl]ethyl sulfide]
- IC50 (astrocytes; Astrocyte, primary cultures of astrocytes, read-out: IC50, lowering of cellular glutamate): 100 to 300 nM
- Lowering of cellular glutamate (astrocytes; astrocytes, partial and specific): ~30%
- Effect on intracellular (non-glutamate) amino acids, including serine, glycine, arginine, alanine, taurine (astrocytes; at 10 μM, astrocytes): no effect
- Inhibition of glutaminase activity in rat brain membranes [1]: inhibition of glutaminase activity
- inhibition at 10 µM (microglia (BV-2) cells; BV-2, at 10 μM, read-out: Inhibition of glutamate efflux by microglia): ~85%
- IC50 (microglia (BV-2) cells; BV-2 cells, glutamine added, FIG. 4, read-out: IC50, inhibition of glutamate efflux by microglia): 80 to 120 nM
- Effect on glutamate in cell extracts [2, 3]: dose dependent decrease
- Effect on glycine or taurine in cell extracts [2, 3]: no effect
- Lowering of cellular glutamate ([2]; CACO2 cells, partial and specific): ~30%
- Effect on intracellular (non-glutamate) amino acids, including serine, glycine, arginine, alanine, taurine ([2]; at 10 μM, intestinal epithelial cells): no effect
- Effect on intracellular (non-glutamate) amino acids, including serine, glycine, arginine, alanine, taurine (cerebellar granule cells; at 10 μM, cultured cerebellar neurons): no effect
- Lowering of cellular glutamate (cerebellar granule cells; granule cell neurons, partial and specific): ~30%
- Effect on cellular GABA (cerebellar granule cells; granule cells, levels up to 10 μM, FIG. 6C): no effect
- IC50 (cerebellar granule cells; primary cultures of cerebellar granule cells, read-out: IC50, lowering of cellular glutamate): 50 to 100 nM
